How the values were obtained:
C4H enzyme = experiment: Yeast heterologous expression assay of C4H inhibition (Example 15); format: biochemical
Procedure: Further structural analogs of the C4H inhibitor 4-iodobenzoic acid (IBA) were tested for their ability to inhibit the C4H enzyme in a yeast heterologous expression assay.

[1] = tested on: Arabidopsis thaliana (ecotype Col-0) seedlings; experiment: In vitro Arabidopsis thaliana seedling growth assay (Example 15); format: in vivo; conditions: for Agravitropy ratio / Primary root length / Rosette area: 14 days old seedlings; for Agravitropy ratio / Primary root length / Rosette area / Germination rate: mean ± SD
Meloidogyne incognita = experiment: M. incognita infection in DIECA-treated tomato (Example 18); format: in vivo; conditions: DIECA alone
Procedure: Infection experiments with M. incognita were performed in the same manner as those with M. graminicola, except that plants were harvested 31 days after inoculation instead of 14 days. At this point, the plants were phenotyped by measuring the root length with a ruler and in some experiments by measuring leaf area using the EasyLeafArea software (Easlon and Bloom, 2014) and by determining shoot dry mass after 72 hours of drying in an oven at 70° C. Galls were stained and counted as described above.
To determine whether C4H inhibitors depend on this hormonal pathway, it was tested whether tomato plants treated with the chemical inhibitor of jasmonic acid biosynthesis diethyldithiocarbamate (DIECA) (Farmer et al., 1994) still responded to PA treatment.

Meloidogyne graminicola [2] = experiment: Meloidogyne graminicola infection in rice cv. Kitaake, additional C4H inhibitors (Example 6); format: in vivo; conditions: foliar spray, N=8
Procedure: (§1) Unless otherwise mentioned, all chemicals for nematode experiments were applied as a foliar spray consisting of the target compound at a concentration of 300 μM together with 0.1% (v/v) Tween 20 surfactant (Calbiochem) in distilled water. Again unless otherwise mentioned, all treatments for the nematode experiments were carried out three times: one and eight days before pathogen inoculation and seven days after pathogen inoculation. In all cases, plants were sprayed until run-off with an atomizer.
(§2) Infection experiments with M. graminicola were performed by inoculating host plants 14 days after transfer to SAP by introducing the desired amount of J2 juveniles next to the root system using a micro pipette. Rice plants (cv. Nipponbare or Kitaake) were inoculated with 250 J2 juveniles per plant; wheat plants (cv. Sahara) were inoculated with 600 J2 juveniles per plant. Plants were harvested 14 days after inoculation. At this point, the plants were phenotyped by measuring the shoot and root length with a ruler, counting the number of adventitious roots and in some experiments by measuring leaf area using the EasyLeafArea software (Easlon and Bloom, 2014) and by determining shoot dry mass after 72 hours of drying in an oven at 70° C. Root systems were then stained in acid fuchsine as described in (Byrd et al., 1983) and left to destain in glycerol with 1 ml/l fuming HCl added for approximately ten days. The number of galls and nematodes was then counted using a binocular microscope.
Four different C4H inhibitors were used: piperonylic acid (PA), piperine (PIP), 4-propynyloxybenzoic acid (4PB) and 3-(4-pyridyl)acrylic acid (3PA).

[3] = tested on: J2 juveniles of Meloidogyne graminicola; experiment: In vitro nematode toxicity assay, M. graminicola J2 (Example 11); conditions: second experiment, C4H inhibitor 100 μM, Vertimec 0.02 v/v % abamectin, water control 93%
Procedure: J2 juveniles of Meloidogyne graminicola and Heterodera schachtii were isolated from Echinocloa cruss-galli roots and sugar beet roots respectively. Per treatment and species combination, 300 nematodes were isolated and divided over six wells that contained 1.5 ml of either sterilized tap water, a 100 μM C4H inhibitor solution or a 0.02 v/v % solution of the nematicide abamectin (Vertimec®, Syngenta AG). The nematodes were incubated in the dark on a slow-moving rotary shaker (50 rpm) and the number of living nematodes was counted regularly using a binocular microscope.
To rule out definitively that the compounds of the invention operate through direct toxicity to nematodes, an in vitro toxicity assay on J2 juveniles of the nematodes Meloidogyne graminicola and Heterodera schachtii was performed.
First, survival upon exposure to the C4H inhibitor piperonylic acid (PA) was compared to a negative control (tap water) and a positive control, the commercial nematicide Vertimec (0.02% Abamectin). A detailed survival curve is shown in FIG. 12a (M. graminicola) and FIG. 12b (H. schachtii).
In a second experiment, a broader range of C4H inhibitors were assayed in the same manner. The toxicity of piperonylic acid (PA), piperine (PIP), 4-propynyloxybenzoic acid (4PB), and 3-(4-pyridyl)acrylic acid (3PA) to J2 juveniles of Meloidogyne graminicola was compared to a negative control (tap water) and a true nematicide (Vertimec, active ingredient abamectin).

tomato = experiment: Phytotoxicity of foliar spray in uninfected tomato (Example 1); format: in vivo, Solanum lycopersicum; conditions: 500 μM foliar spray, 8 plants per treatment; for Leaf Area / Root length: mean ± standard deviation; for BBCH stage: median ± interquartile range
Procedure: Tomato seeds, cv. Moneymaker (Vreeken's Zaden, Dordrecht, the Netherlands) were sown on autoclaved potting soil coveed with polyethylene film and placed at 24° C. for eight days. Seedlings were then transferred to individual SAP-filled pots and placed in a growth chamber at 24° C. Plants were watered three times per week with 25 ml of quarter-strength Hoagland solution for the first two weeks and half-strength thereafter.
as §1
(§3) Short-term phytotoxicity experiments (Example 1) were analyzed using non-parametric methods. For each variable, overall significance was determined using the Kruskal-Wallis test (Kruskal and Wallis, 1952), followed by a posthoc Conover-Iman test (Conover and Iman, 1981) with Hommel multiplicity correction (Hommel, 1988) if the Kruskal-Wallis test was significant. When only two groups were present, the Wilcoxon-Mann-Whitney test was used (Mann and Whitney, 1947).
(§4) To test whether C4H inhibitors induce phytotoxic effects in crops, uninfected tomato, wheat and carrot were treated with piperonylic acid (PA), 4-iodobenzoic acid (4-IBA) and piperic acid (PIA) at a concentration of 500 μM through foliar application. At harvest, leaf area (or shoot length in the case of wheat) and primary root length were recorded. The BBCH developmental stage (Lancashire et al., 1991), a measure of developmental retardation, was used to test for effects on development. Finally, the presence of visible signs of phytotoxicity such as chlorosis, discoloration or necrosis was recorded.

carrot = experiment: Phytotoxicity of foliar spray in uninfected carrot (Example 1); format: in vivo, Daucus carota; conditions: 500 μM foliar spray, 8 plants per treatment; for Leaf Area: mean ± standard deviation; for BBCH stage: median ± interquartile range
Procedure: Carrot seeds, cv. Nantes 2 (Vreeken's Zaden, Dordrecht, the Netherlands) were germinated on wet paper for seven days at 21° C. After germination, seedlings were transferred to individual pots filled with potting soil and placed in a growth chamber at 21° C.
as §1, §3, §4

wheat = experiment: Phytotoxicity of foliar spray in uninfected wheat (Example 1); format: in vivo, Triticum aestivum; conditions: 500 μM foliar spray, 8 plants per treatment; for Root length / Shoot length: mean ± standard deviation; for BBCH stage: median ± interquartile range
Procedure: (§5) For Examples 1, 5 and 10, seeds of the winter wheat cultivar Sahara (Aveve Agrarisch, Landen, Belgium) were used. Seeds were washed in a 10% ethanol solution to remove any residual traces of fungicide and then germinated on wet paper at room temperature for four days; seeds were transferred to SAP tubes and placed in a growth chamber (25° C., 16 hours per day of light). Plants were watered with 8 ml of half-strength Hoagland solution every two days for the first ten days and with 8 ml of full strength Hoagland solution every two days afterwards.
as §1, §3, §4

Meloidogyne graminicola [4] = experiment: Meloidogyne graminicola infection in wheat cv. Sahara (Example 5); format: in vivo; conditions: infected wheat, foliar spray
Procedure: as §5, §1, §2
In this experiment, the compounds PA, MDCA and 4-IBA were tested as foliar spray in the monocot staple crop wheat (Triticum aestivum, cv. Sahara) against the nematode Meloidogyne graminicola. The bacterial compound LPS (lipopolysaccharide), which is a potent inducer of the plant immune system and a known priming agent (Desaki et al., 2006), was also included as a positive control.

[5] = tested on: spring wheat (Triticum aestivum cv. Fielder); experiment: Yield and fertility in pathogen-free spring wheat (Example 2); conditions: 300 μM foliar spray three times; vs. control
Procedure: For Example 2, the spring wheat cultivar Fielder was used. Seeds were obtained from plants grown in the greenhouse complex of the VIB (Zwijnaarde, Belgium). Seeds were sown directly in potting soil (four seeds to a pot, thinned to three plants per pot after emergence) and placed in a growth chamber at 21° C. with 16 hours per day of light. These plants were grown until harvest; they were sprayed three times with the compounds of the invention at a concentration of 300 μM using the protocol described in the chemicals section. Spraying took place 14 and 21 days after emergence and a final time at heading.
In all cases model assumptions were verified using diagnostic plots (residuals, QQ-plot, scale-location and residuals-leverage). Outliers were removed only if they were outliers both in the statistical sense and if there was a biological reason for removal (e.g. the plant was stunted or developed a secondary infection).
To determine the effects of C4H inhibition on yield and fertility, spring wheat (Triticum aestivum cv. Fielder) was grown in a pathogen-free growth chamber until maturity and treated with a control or C4H inhibitor-containing foliar spray at regular intervals. At harvest, the number of ears per plant, the seed mass, the size of the seeds and the germination ability of the freshly harvested seeds were measured. Seed size was measured using the stacking density of the seed as a proxy measure; if a given seed mass takes up a greater volume, then the individual seeds must be larger.

Question: What does the source list for `O=C(O)c1ccc(C(F)(F)F)cc1` [CF3-BA, 4-trifluoromethylbenzoic acid]?
Answer: C4H inhibitor activity (C4H enzyme): significant C4H inhibitor activity; Agravitropy ratio ([1]; 50 μM): 0.79 ± 0.15; Primary root length ([1]; 50 μM): 0.42 ± 0.14 cm; Rosette area ([1]; 50 μM): 0.16 ± 0.06 cm^2; Germination rate ([1]; 50 μM): 0.95 ± 0.22; Agravitropy ratio ([1]; 100 μM): 0.81 ± 0.10; Primary root length ([1]; 100 μM): 0.41 ± 0.14 cm; Rosette area ([1]; 100 μM): 0.15 ± 0.09 cm^2; Germination rate ([1]; 100 μM): 0.84 ± 0.37; seedling phenotype compared with IBA ([1]; seedlings grown on amended medium): identical phenotype to those grown on medium containing IBA

Question: `CCN(CC)C(=S)S` [DIECA, diethyldithiocarbamate, reference compound] was tested. Which “change of number of galls, DIECA-treated tomato plants vs wild type” value (Meloidogyne incognita) did it give?
Answer: The value was “+26%”.

Question: With `O=C(O)/C=C/c1ccncc1` [Formula 3PA, 3-(4-pyridyl)-acrylic acid] as the compound, how does the “reduction in the number of galls compared to the control group” value (shortened to “reduction in the number of galls”) (Meloidogyne graminicola [2]) read?
Answer: Its value is −47%.

Question: And the “survival at the end of the experiment” value [3]?
Answer: Its value is 93%.

Question: Which “Leaf Area” value (tomato) does the source give for `O=C(O)c1ccc(I)cc1` [Formula 4-IBA, 4-iodobenzoic acid] here?
Answer: The value was 8.92 ± 1.91 cm^2.

Question: And the Root length (tomato)?
Answer: Its Root length is 7.40 ± 0.79 cm.

Question: And the BBCH stage (tomato)?
Answer: The BBCH stage was 102.5 ± 1.0.

Question: And the “Leaf Area” value (carrot)?
Answer: Its value is 5.05 ± 1.35 cm^2.

Question: And the BBCH stage (carrot)?
Answer: Its BBCH stage is 13 ± 0.

Question: What about the Root length (wheat) of the same compound?
Answer: The Root length was 14.36 ± 2.78 cm.

Question: And the Shoot length (wheat)?
Answer: The Shoot length was 31.93 ± 3.38 cm.

Question: And the BBCH stage (wheat)?
Answer: The BBCH stage was 13 ± 0.

Question: And the “Number of galls per AR” value (Meloidogyne graminicola [4]; n = 9)?
Answer: Its value is 2.7 ± 0.8.

Question: What about the Number of galls (Meloidogyne graminicola [4]; per root system, n = 9) of the same compound?
Answer: Its Number of galls is 27.8 ± 7.5.

Question: And the “reduction in gall numbers” value (Meloidogyne graminicola [4]; vs control)?
Answer: The value was −27%.

Question: And the “survival at the end of the experiment” value [3]?
Answer: Its value is 89%.

Question: And the Agravitropy ratio ([1]; 50 μM)?
Answer: The Agravitropy ratio was 0.78 ± 0.17.

Question: What about the Primary root length ([1]; 50 μM) of the same compound?
Answer: Its Primary root length is 0.43 ± 0.15 cm.

Question: What about the Rosette area ([1]; 50 μM) of the same compound?
Answer: Its Rosette area is 0.10 ± 0.06 cm^2.

Question: And the Germination rate ([1]; 50 μM)?
Answer: The Germination rate was 0.88 ± 0.34.

Question: What about the Agravitropy ratio ([1]; 100 μM) of the same compound?
Answer: The Agravitropy ratio was 0.82 ± 0.11.

Question: And the Primary root length ([1]; 100 μM)?
Answer: Its Primary root length is 0.28 ± 0.07 cm.

Question: And the Rosette area ([1]; 100 μM)?
Answer: Its Rosette area is 0.05 ± 0.01 cm^2.

Question: And the Germination rate ([1]; 100 μM)?
Answer: Its Germination rate is 0.84 ± 0.37.

Question: Which “reduction in the number of galls” value (Meloidogyne graminicola [2]) does the source give for `C#CCOc1ccc(C(=O)O)cc1` [Formula 4PB, 4-propynyloxybenzoic acid] here?
Answer: Its value is −44%.

Question: What about the “survival at the end of the experiment” value [3] of the same compound?
Answer: The value was 91%.

Question: What about the C4H inhibitor activity (C4H enzyme) of the same compound?
Answer: The C4H inhibitor activity was “significant C4H inhibitor activity”.

Question: Which “Leaf Area” value (tomato) does the source give for `O=C(O)/C=C/C=C/c1ccc2c(c1)OCO2` [PIA, Piperic acid] here?
Answer: The value was 12.21 ± 1.66 cm^2.

Question: And the Root length (tomato)?
Answer: The Root length was 8.24 ± 1.90 cm.

Question: What about the BBCH stage (tomato) of the same compound?
Answer: The BBCH stage was 103 ± 1.0.

Question: And the “Leaf Area” value (carrot)?
Answer: Its value is 4.78 ± 0.85 cm^2.

Question: What about the BBCH stage (carrot) of the same compound?
Answer: Its BBCH stage is 13 ± 0.

Question: And the Root length (wheat)?
Answer: The Root length was 14.57 ± 1.24 cm.

Question: What about the Shoot length (wheat) of the same compound?
Answer: Its Shoot length is 31.07 ± 4.82 cm.

Question: What about the BBCH stage (wheat) of the same compound?
Answer: The BBCH stage was 13 ± 0.

Question: `O=C(/C=C/C=C/c1ccc2c(c1)OCO2)N1CCCCC1` [piperine, Piperine] was tested. Which “reduction in the number of galls” value (Meloidogyne graminicola [2]) did it give?
Answer: Its value is −33%.

Question: What about the “survival at the end of the experiment” value [3] of the same compound?
Answer: The value was 91%.

Question: And the “Total yield (seed mass)” value [5]?
Answer: Its value is “small but statistically significant increase”.

Question: What about the “germination after fourteen days of freshly harvested seeds” value [5] of the same compound?
Answer: Its value is “not significantly different”.

Question: What about the “mean number of ears per plant” value [5] of the same compound?
Answer: Its value is “the same in all treatments”.

Question: And the “seed size (stacking density)” value [5]?
Answer: Its value is “no effect”.

Source: patent US11992011B2, “Compounds for controlling plant pathogens” (VIB VZW, priority 2017, dated 2024)
